Data from ChEMBL document CHEMBL3885881, “DrugMatrix”.

Species: Rattus norvegicus
Experiment: DrugMatrix - Regimen: Daily Repeat
Assay type: toxicity, organism-based, Sprague-Dawley
Set-up: regimen Daily Repeat, gender Male, age 6-8 weeks
Conditions: in vivo, po, 70 mg/kg, route oral GAVAGE, dose level Low, vehicle 100 % WATER; for ABSOLUTE BASOPHIL / ABSOLUTE EOSINOPHIL / ABSOLUTE LYMPHOCYTE / ABSOLUTE MONOCYTE / ABSOLUTE SEGMENTED NEUTROPHIL / BASOPHIL / EOSINOPHIL / ERYTHROCYTE COUNT / HEMATOCRIT / HEMOGLOBIN / LEUKOCYTE COUNT / LYMPHOCYTE / MEAN CORPUSCULAR HEMOGLOBIN / MEAN CORPUSCULAR HEMOGLOBIN CONCENTRATION / MEAN CORPUSCULAR VOLUME / MONOCYTE / NEUTROPHIL / NUCLEATED RED BLOOD CELLS: tissue Blood; for ALANINE AMINOTRANSFERASE / ALBUMIN / ALKALINE PHOSPHATASE / ASPARTATE AMINOTRANSFERASE / BLOOD UREA NITROGEN / CARBON DIOXIDE / CHLORIDE / CHOLESTEROL / CREATINE PHOSPHOKINASE / CREATININE / LACTATE DEHYDROGENASE / LIPASE / PHOSPHORUS / POTASSIUM / SODIUM / TOTAL BILIRUBIN / TOTAL PROTEIN / URIC ACID: tissue Plasma

Compound: CN(C)CCCN1c2ccccc2CCc2ccc(Cl)cc21 [CLOMIPRAMINE]
- ABSOLUTE BASOPHIL (72 h, time 3 day): 0 CELLS/uL
- ABSOLUTE EOSINOPHIL (72 h, time 3 day): 0 CELLS/uL
- ABSOLUTE LYMPHOCYTE (72 h, time 3 day): 11511.33 CELLS/uL
- ABSOLUTE MONOCYTE (72 h, time 3 day): 50 CELLS/uL
- ABSOLUTE SEGMENTED NEUTROPHIL (72 h, time 3 day): 672 CELLS/uL
- BASOPHIL (72 h, time 3 day): 0%
- EOSINOPHIL (72 h, time 3 day): 0%
- ERYTHROCYTE COUNT (72 h, time 3 day): 5.82 x10E6/uL
- HEMATOCRIT (72 h, time 3 day): 36.17%
- HEMOGLOBIN (72 h, time 3 day): 14.27 G/DL
- LEUKOCYTE COUNT (72 h, time 3 day): 12.23 x10E3/uL
- LYMPHOCYTE (72 h, time 3 day): 94%
- MEAN CORPUSCULAR HEMOGLOBIN (72 h, time 3 day): 24.53 pg
- MEAN CORPUSCULAR HEMOGLOBIN CONCENTRATION (72 h, time 3 day): 39.47 G/DL
- MEAN CORPUSCULAR VOLUME (72 h, time 3 day): 62.17 fL
- MONOCYTE (72 h, time 3 day): 0.33%
- NEUTROPHIL (72 h, time 3 day): 5.67%
- NUCLEATED RED BLOOD CELLS (72 h, time 3 day): 0.33 /100WBC
- ALANINE AMINOTRANSFERASE (72 h, time 3 day): 52.33 u/L
- ALBUMIN (72 h, time 3 day): 4.17 G/DL
- ALKALINE PHOSPHATASE (72 h, time 3 day): 458.67 u/L
- ASPARTATE AMINOTRANSFERASE (72 h, time 3 day): 99 u/L
- BLOOD UREA NITROGEN (72 h, time 3 day): 15.67 mg/dL
- CARBON DIOXIDE (72 h, time 3 day): 24.67 mmol/L
- CHLORIDE (72 h, time 3 day): 101 MEQ/L
- CHOLESTEROL (72 h, time 3 day): 73 mg/dL
- CREATINE PHOSPHOKINASE (72 h, time 3 day): 853.67 u/L
- CREATININE (72 h, time 3 day): 0.22 mg/dL
- LACTATE DEHYDROGENASE (72 h, time 3 day): 317.67 u/L
- LIPASE (72 h, time 3 day): 9 u/L
- PHOSPHORUS (72 h, time 3 day): 13.47 mg/dL
- POTASSIUM (72 h, time 3 day): 6.22 MEQ/L
- SODIUM (72 h, time 3 day): 146.57 MEQ/L
- TOTAL BILIRUBIN (72 h, time 3 day): 0.27 mg/dL
- TOTAL PROTEIN (72 h, time 3 day): 6.07 G/DL
- URIC ACID (72 h, time 3 day): 1.93 mg/dL
- ABSOLUTE BASOPHIL (120 h, time 5 day): 0 CELLS/uL
- ABSOLUTE EOSINOPHIL (120 h, time 5 day): 39.67 CELLS/uL
- ABSOLUTE LYMPHOCYTE (120 h, time 5 day): 12212 CELLS/uL
- ABSOLUTE MONOCYTE (120 h, time 5 day): 206.67 CELLS/uL
- ABSOLUTE SEGMENTED NEUTROPHIL (120 h, time 5 day): 1075 CELLS/uL
- BASOPHIL (120 h, time 5 day): 0%
- EOSINOPHIL (120 h, time 5 day): 0.33%
- ERYTHROCYTE COUNT (120 h, time 5 day): 6.52 x10E6/uL
- HEMATOCRIT (120 h, time 5 day): 41.7%
- HEMOGLOBIN (120 h, time 5 day): 15.97 G/DL
- LEUKOCYTE COUNT (120 h, time 5 day): 13.53 x10E3/uL
- LYMPHOCYTE (120 h, time 5 day): 90.33%
- MEAN CORPUSCULAR HEMOGLOBIN (120 h, time 5 day): 24.53 pg
- MEAN CORPUSCULAR HEMOGLOBIN CONCENTRATION (120 h, time 5 day): 38.27 G/DL
- MEAN CORPUSCULAR VOLUME (120 h, time 5 day): 64.07 fL
- MONOCYTE (120 h, time 5 day): 1.33%
- NEUTROPHIL (120 h, time 5 day): 8%
- NUCLEATED RED BLOOD CELLS (120 h, time 5 day): 1 /100WBC
- ALANINE AMINOTRANSFERASE (120 h, time 5 day): 54 u/L
- ALBUMIN (120 h, time 5 day): 4.67 G/DL
- ALKALINE PHOSPHATASE (120 h, time 5 day): 417.67 u/L
- ASPARTATE AMINOTRANSFERASE (120 h, time 5 day): 75.33 u/L
- BLOOD UREA NITROGEN (120 h, time 5 day): 13.33 mg/dL
- CARBON DIOXIDE (120 h, time 5 day): 27.67 mmol/L
- CHLORIDE (120 h, time 5 day): 100.33 MEQ/L
- CHOLESTEROL (120 h, time 5 day): 74 mg/dL
- CREATINE PHOSPHOKINASE (120 h, time 5 day): 213 u/L
- CREATININE (120 h, time 5 day): 0.2 mg/dL
- LACTATE DEHYDROGENASE (120 h, time 5 day): 196.67 u/L
- LIPASE (120 h, time 5 day): 8.67 u/L
- PHOSPHORUS (120 h, time 5 day): 12.07 mg/dL
- POTASSIUM (120 h, time 5 day): 6.7 MEQ/L
- SODIUM (120 h, time 5 day): 146.33 MEQ/L
- TOTAL BILIRUBIN (120 h, time 5 day): 0.2 mg/dL
- TOTAL PROTEIN (120 h, time 5 day): 6.57 G/DL
- URIC ACID (120 h, time 5 day): 1.57 mg/dL
